The source of these data is ChEMBL document CHEMBL1126507, “The synthesis of novel 8a-aza-8a-homoerythromycin derivatives via the beckmann rearrangement of (9z)-erythromycin a oxime” (1993).

≈ marks a conversion by molar mass, not a printed value.

Common to all, as to assay type: functional
In assay [1] the test system is Streptococcus pneumoniae. Nature of the assay: Minimum inhibitory concentration required for antibacterial activity against Streptococcus pneumoniae CL 2883 strain.
For assay [2], the system named is Streptococcus pyogenes. Nature of the assay: Minimum inhibitory concentration required for antibacterial activity against Streptococcus pyogenes MB 2874 strain.
The test system of assay [3] is Staphylococcus epidermidis. Nature of the assay: Minimum inhibitory concentration required for antibacterial activity against Staphylococcus epidermidis MB 5414 strain.
Assay [4] has as its system Haemophilus influenzae. Nature of the assay: Minimum inhibitory concentration required for antibacterial activity against Haemophilus influenzae MB 5363 strain.
Assay [5] concerns Enterococcus faecalis. Nature of the assay: Minimum inhibitory concentration required for antibacterial activity against Enterococcus faecalis MB 5407 strain.
Assay [6] deals with Klebsiella pneumoniae. As to the kind of experiment: Minimum inhibitory concentration required for antibacterial activity against Klebsiella pneumoniae MB 4005 strain.
For assay [7], the system named is Staphylococcus aureus. Nature of the assay: Minimum inhibitory concentration required for antibacterial activity against Staphylococcus aureus MB 2865 strain.
The test system of assay [8] is Haemophilus influenzae. Nature of the assay: Minimum inhibitory concentration required for antibacterial activity against Haemophilus influenzae CL 1830 strain.
Assay [9] relates to Enterobacter cloacae. Nature of the assay: Minimum inhibitory concentration required for antibacterial activity against Enterobacter cloacae CL 4298 strain.
The test system of assay [10] is Escherichia coli. Nature of the assay: Minimum inhibitory concentration required for antibacterial activity against Escherichia coli MB 2884 strain.
In assay [11] the test system is Staphylococcus aureus. Nature of the assay: microbe, parasite or virus in culture.
The test system of assay [12] is Enterobacter cloacae. Nature of the assay: Minimum inhibitory concentration required for antibacterial activity against Enterobacter cloacae CL 4298 strain;value ranges from 32-64.
Assay [13] has as its system Enterococcus faecalis. Nature of the assay: Minimum inhibitory concentration required for antibacterial activity against Enterococcus faecalis MB 5407 strain;value ranges from 1-2.
Assay [14] has as its system Haemophilus influenzae. As to the kind of experiment: Minimum inhibitory concentration required for antibacterial activity against Haemophilus influenzae MB 5363 strain;value ranges from 2-4.
Assay [15] has as its system Haemophilus influenzae. Nature of the assay: Minimum inhibitory concentration required for antibacterial activity against Haemophilus influenzae CL 1830 strain;value ranges from 64-128.
Assay [16] concerns Escherichia coli. As to the kind of experiment: Minimum inhibitory concentration required for antibacterial activity against Escherichia coli MB 2884 strain;value ranges from 16-64.
Assay [17] deals with Klebsiella pneumoniae. As to the kind of experiment: Minimum inhibitory concentration required for antibacterial activity against Klebsiella pneumoniae MB 4005 strain;value ranges from 32-64.
Assay [18] relates to Haemophilus influenzae. As to the kind of experiment: Minimum inhibitory concentration required for antibacterial activity against Haemophilus influenzae MB 5363 strain;value ranges from 0.5-2.
Assay [19] has as its system Staphylococcus epidermidis. As to the kind of experiment: Minimum inhibitory concentration required for antibacterial activity against Staphylococcus epidermidis MB 5414 strain;value ranges from 0.25-0.5.
For assay [20], the system named is Haemophilus influenzae. Nature of the assay: Minimum inhibitory concentration required for antibacterial activity against Haemophilus influenzae CL 1830 strain;value ranges from 4-16.
Assay [21] deals with Staphylococcus aureus. Nature of the assay: Minimum inhibitory concentration required for antibacterial activity against Staphylococcus aureus MB 2865 strain;value ranges from 0.25-1.
Assay [22] relates to Klebsiella pneumoniae. As to the kind of experiment: Minimum inhibitory concentration required for antibacterial activity against Klebsiella pneumoniae MB 4005 strain;value ranges from 1-2.
In assay [23] the test system is Escherichia coli. As to the kind of experiment: Minimum inhibitory concentration required for antibacterial activity against Escherichia coli MB 2884 strain;value ranges from 1-2.
Assay [24] deals with Staphylococcus epidermidis. As to the kind of experiment: Minimum inhibitory concentration required for antibacterial activity against Staphylococcus epidermidis MB 5414 strain;value ranges from 16-128.
Assay [25] concerns Staphylococcus aureus. As to the kind of experiment: Minimum inhibitory concentration required for antibacterial activity against Staphylococcus aureus MB 2865 strain;value ranges from 32-64.
The subject of assay [26] is Enterococcus faecalis. As to the kind of experiment: Minimum inhibitory concentration required for antibacterial activity against Enterococcus faecalis MB 5407 strain;value ranges from 4-8.
The subject of assay [27] is Haemophilus influenzae. As to the kind of experiment: Minimum inhibitory concentration required for antibacterial activity against Haemophilus influenzae CL 1830 strain;value ranges from 8-16.
Assay [28] deals with Staphylococcus aureus. As to the kind of experiment: Minimum inhibitory concentration required for antibacterial activity against Staphylococcus aureus MB 2865 strain;value ranges from 0.5-1.

On to `CC[C@H]1OC(=O)[C@H](C)[C@@H](O[C@H]2C[C@@](C)(OC)[C@@H](O)[C@H](C)O2)[C@H](C)[C@@H](O[C@@H]2O[C@H](C)C[C@H](N(C)C)[C@H]2O)[C@](C)(O)C[C@@H](C)/N=C2/O[C@@]1(C)[C@H](O)[C@H]2C`, for which the MIC in [1] is 4 mg/L (≈ 5.47 µM); in [2] it was 2 mg/L (≈ 2.74 µM); in assay [3], 16 mg/L (≈ 21.9 µM); in assay [4], 64 mg/L (≈ 87.6 µM); in assay [5] it was greater than 128 mg/L; in [6], greater than 128 mg/L. Further, the MIC in assay [7] was 16 mg/L (≈ 21.9 µM); in [8] it was greater than 128 mg/L; in assay [9] it was 128 mg/L (≈ 175 µM); in [10], 128 mg/L (≈ 175 µM).

As for `CC[C@H]1OC(=O)[C@H](C)[C@@H](O[C@H]2C[C@@](C)(OC)[C@@H](O)[C@H](C)O2)[C@H](C)[C@@H](O[C@@H]2O[C@H](C)C[C@H](N(C)C)[C@H]2O)[C@](C)(O)C[C@@H](C)C(=O)[C@H](C)[C@@H](O)[C@]1(C)O` [ERYTHROMYCIN], the MIC was 0.125 mg/L (≈ 0.17 µM) in assay [11]; no more than 0.06 mg/L in assay [1]; no more than 0.06 mg/L in [2]; 32 mg/L (≈ 43.6 µM) in assay [12]; 1 mg/L (≈ 1.36 µM) in [13]; 2 mg/L (≈ 2.73 µM) in [14]. In addition, the MIC in assay [3] is 0.125 mg/L (≈ 0.17 µM); in assay [15] it was 64 mg/L (≈ 87.2 µM); in assay [16] it was 16 mg/L (≈ 21.8 µM); in [17], 32 mg/L (≈ 43.6 µM).

As to `CC[C@H]1OC(=O)[C@H](C)[C@@H](O[C@H]2C[C@@](C)(OC)[C@@H](O)[C@H](C)O2)[C@H](C)[C@@H](O[C@@H]2O[C@H](C)C[C@H](N(C)C)[C@H]2O)[C@](C)(O)C[C@@H](C)NC(=O)[C@H](C)[C@@H](O)[C@]1(C)O`, the MIC in assay [1] was no more than 0.06 mg/L; in assay [2], no more than 0.06 mg/L; in assay [3], 0.5 mg/L (≈ 0.668 µM); in assay [4] it was 32 mg/L (≈ 42.7 µM); in assay [5] it was 8 mg/L (≈ 10.7 µM); in assay [6], 32 mg/L (≈ 42.7 µM). Moreover, the results for the MIC in assay [7] and in assay [10] were 0.5 mg/L (≈ 0.668 µM) and 16 mg/L (≈ 21.4 µM), respectively.

For `CC[C@H]1OC(=O)[C@H](C)[C@@H](O[C@H]2C[C@@](C)(OC)[C@@H](O)[C@H](C)O2)[C@H](C)[C@@H](O[C@@H]2O[C@H](C)C[C@H](N(C)C)[C@H]2O)[C@](C)(O)C[C@@H](C)N(C)C[C@H](C)[C@@H](O)[C@]1(C)O` [L-701677], the MIC is 0.5 mg/L (≈ 0.668 µM) in [18]; no more than 0.06 mg/L in assay [1]; no more than 0.06 mg/L in assay [2]; 0.25 mg/L (≈ 0.334 µM) in [19]; 4 mg/L (≈ 5.34 µM) in assay [20]; 0.25 mg/L (≈ 0.334 µM) in [21]. For the same compound, the MIC worked out at 2 mg/L (≈ 2.67 µM) in [5], 1 mg/L (≈ 1.34 µM) in assay [22], 1 mg/L (≈ 1.34 µM) in assay [23] and 1 mg/L (≈ 1.34 µM) in assay [9].

As to `CC[C@H]1OC(=O)[C@H](C)[C@@H](O[C@H]2C[C@@](C)(OC)[C@@H](O)[C@H](C)O2)[C@H](C)[C@@H](O[C@@H]2O[C@H](C)C[C@H](N(C)C)[C@H]2O)[C@@]2(C)C[C@@H](C)N=C(O2)[C@H](C)[C@@H](O)[C@]1(C)O`, the MIC in assay [1] was 2 mg/L (≈ 2.74 µM); in assay [2], 0.5 mg/L (≈ 0.684 µM); in [24], 16 mg/L (≈ 21.9 µM); in [4] it was 64 mg/L (≈ 87.6 µM); in assay [5], 16 mg/L (≈ 21.9 µM); in assay [6] it was greater than 128 mg/L. Further, the MIC was greater than 128 mg/L in assay [8], 128 mg/L (≈ 175 µM) in [9], 32 mg/L (≈ 43.8 µM) in [25] and 128 mg/L (≈ 175 µM) in assay [10].

Turning to `CC[C@H]1OC(=O)[C@H](C)[C@@H](O[C@H]2C[C@@](C)(OC)[C@@H](O)[C@H](C)O2)[C@H](C)[C@@H](O[C@@H]2O[C@H](C)C[C@H](N(C)C)[C@H]2O)[C@](C)(O)C[C@@H](C)CN(C)[C@H](C)[C@@H](O)[C@]1(C)O` [AZITHROMYCIN], the MIC in [18] was 0.5 mg/L (≈ 0.668 µM); in assay [1], no more than 0.06 mg/L; in assay [2], no more than 0.06 mg/L; in assay [19], 0.25 mg/L (≈ 0.334 µM); in [26] it was 4 mg/L (≈ 5.34 µM); in assay [22], 1 mg/L (≈ 1.34 µM). In addition, the MIC in assay [27] worked out at 8 mg/L (≈ 10.7 µM); in [23], 1 mg/L (≈ 1.34 µM); in assay [9] it was 1 mg/L (≈ 1.34 µM); in assay [28], 0.5 mg/L (≈ 0.668 µM).

`CC[C@H]1OC(=O)[C@H](C)[C@@H](O[C@H]2C[C@@](C)(OC)[C@@H](O)[C@H](C)O2)[C@H](C)[C@@H](O[C@@H]2O[C@H](C)C[C@H](N(C)C)[C@H]2O)[C@](C)(O)C[C@@H](C)NC[C@H](C)[C@@H](O)[C@]1(C)O`: the MIC in assay [1] was no more than 0.06 mg/L; in [2], no more than 0.06 mg/L; in assay [3], 0.5 mg/L (≈ 0.68 µM); in assay [4] it was 4 mg/L (≈ 5.44 µM); in assay [5], 4 mg/L (≈ 5.44 µM); in assay [6] it was 4 mg/L (≈ 5.44 µM). Besides, the MIC in assay [8] amounted to 32 mg/L (≈ 43.5 µM); in [9], 4 mg/L (≈ 5.44 µM); in assay [28], 0.5 mg/L (≈ 0.68 µM); in assay [10], 2 mg/L (≈ 2.72 µM).
